Values of other authors in patent US20020081339A1, “Treatment of inoperable tumors by stereotactic injection of microspheres” (priority 2000, published 2002).

Settings: hydrophilic molecule

O=c1[nH]cc(F)c(=O)[nH]1 [5-FU, 5-fluorouracil]
crossing of the blood-brain barrier: crosses the blood-brain barrier very weakly
